We go through twelve compounds from PubChem BioAssay AID192 (DTP/NCI, 2004).

SMILES strings stand for the structures. Where “and” joins values, the source holds several entries; their conditions need not be identical. Equal entries are not always repeated. Inconclusive results and toxic doses are left out.

The test system of the experiment is BDF1 mice, B16 melanoma ip, median survival T/C. The experiment is described as follows: NCI In Vivo Anticancer Drug Screen. Data for tumor model B16 Melanoma (intraperitoneal) in B6D2F1 (BDF1) mice. To be noted: endpoint: median survival time, higher = longer survival. The gist of the method:
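Transplantable tumor model; survival or tumor size measured; reported as T/C, treated over vehicle control.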

Where [1] appears, read: dose: 100.0 mg/kg/injection, schedule: Q01DX009 (ip), vehicle: Klucel (hydroxypropylcellulose) (HPC).
[2] abbreviates: dose: 200.0 mg/kg/injection, schedule: Q01DX009 (ip), vehicle: Klucel (hydroxypropylcellulose) (HPC).
Where [3] appears, read: dose: 25.0 mg/kg/injection, schedule: Q01DX009 (ip), vehicle: saline with Tween-80.
The mark [4] stands for this setting: dose: 50.0 mg/kg/injection, schedule: Q01DX009 (ip), vehicle: saline with Tween-80.
[5] abbreviates: dose: 25.0 mg/kg/injection, schedule: Q01DX009 (ip), vehicle: Klucel (hydroxypropylcellulose) (HPC).
The mark [6] stands for this setting: dose: 50.0 mg/kg/injection, schedule: Q01DX009 (ip), vehicle: Klucel (hydroxypropylcellulose) (HPC).
Where [7] appears, read: dose: 100.0 mg/kg/injection, schedule: Q01DX009 (ip), vehicle: saline with Tween-80.
Setting [8] is: dose: 200.0 mg/kg/injection, schedule: Q01DX009 (ip), vehicle: saline with Tween-80.

For the compound `CCC(CC)(C[NH-])C[NH-].[Cl][Pt+2][Cl]`, the T/C is 164 % of control (dose: 1.2 mg/kg/injection, schedule: Q01DX009 (ip), vehicle: carboxymethylcellulose (CMC)) and 164 % of control (dose: 2.4 mg/kg/injection, schedule: Q01DX009 (ip), vehicle: carboxymethylcellulose (CMC)).
As to `COc1ccc(Cl)cc1NC(=O)CC(C)=O`, the T/C is, setting by setting: under setting [1], 100 % of control; under setting [2], 93 % of control; (dose: 400.0 mg/kg/injection, schedule: Q01DX009 (ip), vehicle: Klucel (hydroxypropylcellulose) (HPC)) 96 % of control.
On to `O=[N+]([O-])c1cc([N+](=O)[O-])c(Nn2c3ccccc3c3ccccc32)c([N+](=O)[O-])c1`, for which the T/C is, setting by setting: (dose: 12.5 mg/kg/injection, schedule: Q01DX009 (ip), vehicle: saline with Tween-80) 86 % of control; under setting [3], 88 % of control; under setting [4], 93 % of control.
Regarding `CC(CC=O)CCCC(C)(C)O` (centres undefined), the T/C is 101 % of control under setting [1] and 97 % of control under setting [2].
Regarding `Cc1ccc(C(=O)[O][Hg][CH2]C2COC([CH2][Hg][O]C(=O)c3ccc(C)cc3)CO2)cc1` (centres undefined), the T/C runs as follows: (dose: 0.09 mg/kg/injection, schedule: Q01DX009 (ip), vehicle: Klucel (hydroxypropylcellulose) (HPC)) 92 % of control; (dose: 0.19 mg/kg/injection, schedule: Q01DX009 (ip), vehicle: Klucel (hydroxypropylcellulose) (HPC)) 87 % of control; (dose: 0.39 mg/kg/injection, schedule: Q01DX009 (ip), vehicle: Klucel (hydroxypropylcellulose) (HPC)) 99 % of control; (dose: 0.78 mg/kg/injection, schedule: Q01DX009 (ip), vehicle: Klucel (hydroxypropylcellulose) (HPC)) 100 % of control; (dose: 1.56 mg/kg/injection, schedule: Q01DX009 (ip), vehicle: Klucel (hydroxypropylcellulose) (HPC)) 100 % of control; (dose: 3.12 mg/kg/injection, schedule: Q01DX009 (ip), vehicle: Klucel (hydroxypropylcellulose) (HPC)) 94 % of control and 106 % of control. In addition, the T/C was 92 % of control and 107 % of control (dose: 6.25 mg/kg/injection, schedule: Q01DX009 (ip), vehicle: Klucel (hydroxypropylcellulose) (HPC)); 94 % of control and 99 % of control (dose: 12.5 mg/kg/injection, schedule: Q01DX009 (ip), vehicle: Klucel (hydroxypropylcellulose) (HPC)); 94 % of control and 96 % of control under setting [5]; 89 % of control and 94 % of control under setting [6].
For `CCOC(=O)N1CCc2nc3ccc(Cl)cc3cc21`, the T/C is 113 % of control under setting [3], 111 % of control under setting [4], 124 % of control under setting [7] and 106 % of control under setting [8].
As for `O=NN(CCCl)C(=O)Nc1c[nH]c2ccccc12`, the T/C under setting [5] is 153 % of control and 158 % of control; the T/C under setting [6] was 157 % of control and 158 % of control and 165 % of control; the T/C under setting [1] is 162 % of control and 174 % of control; the T/C under setting [2] is 174 % of control.
On to `[Cl][Mn][Cl]`, for which the T/C reads like this: (dose: 6.25 mg/kg/injection, schedule: Q01DX009 (ip), vehicle: water) 100 % of control; (dose: 12.5 mg/kg/injection, schedule: Q01DX009 (ip), vehicle: water) 98 % of control; (dose: 17.8 mg/kg/injection, schedule: Q01DX009 (ip), vehicle: saline) 104 % of control; (dose: 17.8 mg/kg/injection, schedule: Q01DX009 (sc), vehicle: water) 101 % of control; (dose: 25.0 mg/kg/injection, schedule: Q01DX009 (ip), vehicle: water) 109 % of control; (dose: 26.7 mg/kg/injection, schedule: Q01DX009 (ip), vehicle: saline) 110 % of control and 114 % of control. Further, the T/C is 99 % of control (dose: 26.7 mg/kg/injection, schedule: Q01DX009 (sc), vehicle: water); 107 % of control and 117 % of control (dose: 40.0 mg/kg/injection, schedule: Q01DX009 (ip), vehicle: saline); 104 % of control (dose: 40.0 mg/kg/injection, schedule: Q01DX009 (sc), vehicle: water); 114 % of control (dose: 50.0 mg/kg/injection, schedule: Q01DX009 (ip), vehicle: water); 106 % of control and 119 % of control (dose: 60.0 mg/kg/injection, schedule: Q01DX009 (ip), vehicle: saline); 163 % of control (dose: 60.0 mg/kg/injection, schedule: Q01DX009 (ip), vehicle: water). In addition, the T/C is 104 % of control (dose: 60.0 mg/kg/injection, schedule: Q01DX009 (sc), vehicle: water) and 104 % of control (dose: 90.0 mg/kg/injection, schedule: Q01DX009 (sc), vehicle: water).
As for `Cc1[nH]c(N)nc(=S)c1CCC(=O)Nc1ccc(C(=O)NC(CCC(=O)O)C(=O)O)cc1` (centres undefined), the T/C was 101 % of control under setting [4]; 101 % of control under setting [7]; 100 % of control under setting [8]; 110 % of control (dose: 400.0 mg/kg/injection, schedule: Q01DX009 (ip), vehicle: saline with Tween-80).
Turning to `OC(C1CO1)C(O)C1CO1` (centres undefined), the T/C is 118 % of control (dose: 0.12 mg/kg/injection, schedule: Q01DX009 (ip), vehicle: saline); 114 % of control (dose: 0.13 mg/kg/injection, schedule: Q03HX024 (ip), vehicle: saline); 104 % of control and 107 % of control and 110 % of control (dose: 0.25 mg/kg/injection, schedule: Q01DX009 (ip), vehicle: saline); 123 % of control (dose: 0.25 mg/kg/injection, schedule: Q03HX008 (ip), vehicle: saline); 120 % of control (dose: 0.25 mg/kg/injection, schedule: Q03HX016 (ip), vehicle: saline); 113 % of control (dose: 0.5 mg/kg/injection, schedule: Q01DX005 (ip), vehicle: saline). Further, the T/C is 120 % of control (dose: 0.5 mg/kg/injection, schedule: Q03HX008 (ip), vehicle: saline); 119 % of control (dose: 1.0 mg/kg/injection, schedule: Q01DX005 (ip), vehicle: saline); 152 % of control (dose: 1.0 mg/kg/injection, schedule: Q03HX016 (ip), vehicle: saline); 172 % of control (dose: 1.0 mg/kg/injection, schedule: Q03HX024 (ip), vehicle: saline); 153 % of control (dose: 2.0 mg/kg/injection, schedule: Q01DX005 (ip), vehicle: saline); 160 % of control (dose: 2.0 mg/kg/injection, schedule: Q03HX008 (ip), vehicle: saline). Moreover, the T/C was 214 % of control (dose: 2.0 mg/kg/injection, schedule: Q03HX016 (ip), vehicle: saline); 158 % of control (dose: 4.0 mg/kg/injection, schedule: Q01DX001 (ip), vehicle: saline); 192 % of control (dose: 4.0 mg/kg/injection, schedule: Q01DX005 (ip), vehicle: saline); 184 % of control (dose: 4.0 mg/kg/injection, schedule: Q01DX009 (ip), vehicle: saline sonified); 158 % of control (dose: 4.0 mg/kg/injection, schedule: Q08DX002 (ip), vehicle: saline); 204 % of control (dose: 8.0 mg/kg/injection, schedule: Q01DX001 (ip), vehicle: saline). Besides, the T/C (dose: 8.0 mg/kg/injection, schedule: Q04DX003 (ip), vehicle: saline) was 171 % of control and the T/C (dose: 8.0 mg/kg/injection, schedule: Q08DX002 (ip), vehicle: saline) was 208 % of control.
Turning to `CN1CCC23c4c5ccc(O)c4OC2C(O)C=CC3C1C5` (centres undefined), the T/C runs as follows: (dose: 32.0 mg/kg/injection, schedule: Q01DX009 (ip), vehicle: saline) 114 % of control; (dose: 64.0 mg/kg/injection, schedule: Q01DX009 (ip), vehicle: saline) 111 % of control; (dose: 128.0 mg/kg/injection, schedule: Q01DX009 (ip), vehicle: saline) 100 % of control; (dose: 256.0 mg/kg/injection, schedule: Q01DX009 (ip), vehicle: saline) 94 % of control.
On to `CCCC(=O)NC1CCc2cc(OC)c(OC)c(OC)c2-c2ccc(OC)c(=O)cc21` (centres undefined), for which the T/C is 115 % of control (dose: 0.15 mg/kg/injection, schedule: Q01DX009 (ip), vehicle: Klucel (hydroxypropylcellulose) (HPC)); 112 % of control (dose: 0.31 mg/kg/injection, schedule: Q01DX009 (ip), vehicle: Klucel (hydroxypropylcellulose) (HPC)); 119 % of control (dose: 0.63 mg/kg/injection, schedule: Q01DX009 (ip), vehicle: Klucel (hydroxypropylcellulose) (HPC)); 123 % of control (dose: 2.5 mg/kg/injection, schedule: Q01DX009 (ip), vehicle: Klucel (hydroxypropylcellulose) (HPC)).
